PubChem BioAssay (NCI)
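Following 48 hours of exposure in 96-well plates, responses at five concentrations were used to interpolate endpoints linearly. GI50: concentration for 50% inhibition of growth. TGI is the concentration that stops growth completely.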

Assays:
Experiment in all cases: NCI-60 cell line screen, 48 h
U251 CNS = system: U251 CNS
786-0 renal = system: 786-0 renal
TK-10 renal = system: TK-10 renal
RXF 393 renal = system: RXF 393 renal
NCI-H460 lung = system: NCI-H460 lung
NCI-H23 lung = system: NCI-H23 lung
SN12C renal = system: SN12C renal
MDA-MB-231 breast = system: MDA-MB-231 breast
NCI-H226 lung = system: NCI-H226 lung
MDA-MB-435 = system: MDA-MB-435
MCF7 breast = system: MCF7 breast
LOX IMVI melanoma = system: LOX IMVI melanoma
CCRF-CEM leukemia = system: CCRF-CEM leukemia
UO-31 renal = system: UO-31 renal
EKVX NSCLC = system: EKVX NSCLC
RPMI-8226 leukemia = system: RPMI-8226 leukemia
SF-295 CNS = system: SF-295 CNS
HOP-92 NSCLC = system: HOP-92 NSCLC
NCI-H522 lung = system: NCI-H522 lung
T-47D breast = system: T-47D breast
OVCAR-5 ovarian = system: OVCAR-5 ovarian
KM12 colon = system: KM12 colon
BT-549 breast = system: BT-549 breast
HS 578T breast = system: HS 578T breast
SF-539 CNS = system: SF-539 CNS
A498 renal = system: A498 renal
IGROV1 ovarian = system: IGROV1 ovarian
HL-60(TB) leukemia = system: HL-60(TB) leukemia
SNB-75 CNS = system: SNB-75 CNS
SF-268 CNS = system: SF-268 CNS
OVCAR-8 ovarian = system: OVCAR-8 ovarian
K-562 leukemia = system: K-562 leukemia
NCI/ADR-RES ovarian = system: NCI/ADR-RES ovarian
COLO 205 colon = system: COLO 205 colon
HCT-116 colon = system: HCT-116 colon
HT29 colon = system: HT29 colon
OVCAR-4 ovarian = system: OVCAR-4 ovarian
M14 melanoma = system: M14 melanoma
SK-OV-3 ovarian = system: SK-OV-3 ovarian
SNB-19 CNS = system: SNB-19 CNS
SK-MEL-2 melanoma = system: SK-MEL-2 melanoma
SW-620 colon = system: SW-620 colon
MOLT-4 leukemia = system: MOLT-4 leukemia
UACC-62 melanoma = system: UACC-62 melanoma
A549 NSCLC = system: A549 NSCLC
HCT-15 colon = system: HCT-15 colon
CAKI-1 renal = system: CAKI-1 renal
HOP-62 NSCLC = system: HOP-62 NSCLC
UACC-257 melanoma = system: UACC-257 melanoma
DU-145 prostate = system: DU-145 prostate
OVCAR-3 ovarian = system: OVCAR-3 ovarian
HCC-2998 colon = system: HCC-2998 colon
PC-3 prostate = system: PC-3 prostate
SR leukemia = system: SR leukemia
ACHN renal = system: ACHN renal
SK-MEL-28 melanoma = system: SK-MEL-28 melanoma
SK-MEL-5 melanoma = system: SK-MEL-5 melanoma
MALME-3M melanoma = system: MALME-3M melanoma

## CC(=O)OC1OC([C@H]2c3cccc(O)c3C(=O)c3c(O)cc(C)cc32)C(O)C(O)C1O (stereo not given in full)
U251 CNS
  GI50: < 16.4 nM
  TGI: 244 nM
786-0 renal
  GI50: 33.4 nM
  TGI: 1990 nM
TK-10 renal
  GI50: 254 nM
  TGI: 1750 nM
RXF 393 renal
  GI50: < 26.7 nM
  TGI: 346 nM
NCI-H460 lung
  GI50: 105 nM
  TGI: 1410 nM
NCI-H23 lung
  GI50: < 16.1 nM
SN12C renal
  GI50: < 25.9 nM
MDA-MB-231 breast
  GI50: 18.8 nM
  TGI: 67.1 nM
NCI-H226 lung
  GI50: < 10 nM
  TGI: 45.5 nM
MDA-MB-435
  GI50: 81.7 nM
  TGI: 2720 nM
MCF7 breast
  GI50: 287 nM
  TGI: 803 nM
LOX IMVI melanoma
  GI50: < 14.6 nM
  TGI: < 25.1 nM
CCRF-CEM leukemia
  GI50: 444 nM
  TGI: 2250 nM
UO-31 renal
  GI50: 138 nM
EKVX NSCLC
  GI50: 198 nM
  TGI: 3040 nM
RPMI-8226 leukemia
  GI50: 77.9 nM
  TGI: 200 nM
SF-295 CNS
  GI50: 81.7 nM
  TGI: 239 nM
HOP-92 NSCLC
  GI50: 62.3 nM
  TGI: 194 nM
NCI-H522 lung
  GI50: 47.9 nM
  TGI: 19900 nM
T-47D breast
  GI50: 31.9 nM
  TGI: > 41100 nM
OVCAR-5 ovarian
  GI50: < 29.6 nM
  TGI: 4710 nM
KM12 colon
  GI50: 202 nM
  TGI: 624 nM
BT-549 breast
  GI50: 356 nM
  TGI: 1030 nM
HS 578T breast
  TGI: 728 nM
SF-539 CNS
  GI50: 121 nM
  TGI: 7080 nM
A498 renal
  GI50: 105 nM
  TGI: 589 nM
IGROV1 ovarian
  GI50: 224 nM
  TGI: > 100000 nM
HL-60(TB) leukemia
  GI50: 15.7 nM
  TGI: 47.2 nM
SNB-75 CNS
  GI50: 29.7 nM
  TGI: 2740 nM
SF-268 CNS
  GI50: 78.8 nM
  TGI: 1740 nM
OVCAR-8 ovarian
  GI50: 29.4 nM
  TGI: 87.3 nM
K-562 leukemia
  GI50: 203 nM
  TGI: > 33500 nM
NCI/ADR-RES ovarian
  GI50: 38.3 nM
  TGI: 5950 nM
COLO 205 colon
  GI50: 42.1 nM
HCT-116 colon
  GI50: < 10 nM
  TGI: 1180 nM
HT29 colon
  GI50: 116 nM
  TGI: > 100000 nM
OVCAR-4 ovarian
  GI50: < 40.2 nM
  TGI: > 89200 nM
M14 melanoma
  GI50: < 21.4 nM
  TGI: 3850 nM
SK-OV-3 ovarian
  GI50: 57.6 nM
  TGI: 12300 nM
SNB-19 CNS
  GI50: 34.2 nM
SK-MEL-2 melanoma
  GI50: 96.2 nM
  TGI: 2630 nM
SW-620 colon
  GI50: 112 nM
  TGI: 14100 nM
MOLT-4 leukemia
  GI50: 1030 nM
UACC-62 melanoma
  GI50: < 21.9 nM
  TGI: 1410 nM
A549 NSCLC
  GI50: 47.9 nM
  TGI: 15100 nM
HCT-15 colon
  GI50: 38.5 nM
  TGI: 2000 nM
CAKI-1 renal
  GI50: 77.3 nM
  TGI: 544 nM
HOP-62 NSCLC
  GI50: 65 nM
  TGI: 1930 nM
UACC-257 melanoma
  GI50: < 13.9 nM
DU-145 prostate
  GI50: 281 nM
  TGI: 12500 nM
OVCAR-3 ovarian
  GI50: 29 nM
  TGI: 88.5 nM
HCC-2998 colon
  GI50: < 10 nM
PC-3 prostate
  TGI: 1090 nM
SR leukemia
  GI50: 30.8 nM
  TGI: 119 nM
ACHN renal
  GI50: 72.9 nM
  TGI: 437 nM
SK-MEL-28 melanoma
  GI50: 191 nM
  TGI: > 23200 nM

## Cc1cc(C)c2c(=O)cc(-c3cccc4ccccc34)[nH]c2n1
U251 CNS
  TGI: 23800 nM
786-0 renal
  TGI: > 100000 nM
TK-10 renal
  TGI: > 87100 nM
RXF 393 renal
  TGI: > 37100 nM
NCI-H460 lung
  TGI: > 100000 nM
NCI-H23 lung
  TGI: > 61600 nM
SN12C renal
  TGI: > 100000 nM
MDA-MB-231 breast
  TGI: 18600 nM
NCI-H226 lung
  TGI: 79100 nM
MDA-MB-435
  TGI: 513 nM
MCF7 breast
  TGI: > 100000 nM
LOX IMVI melanoma
  TGI: 26400 nM
CCRF-CEM leukemia
  TGI: > 100000 nM
UO-31 renal
  TGI: > 100000 nM
EKVX NSCLC
  TGI: > 100000 nM
RPMI-8226 leukemia
  TGI: 29000 nM
SF-295 CNS
  TGI: > 100000 nM
HOP-92 NSCLC
  TGI: > 77100 nM
T-47D breast
  TGI: > 100000 nM
OVCAR-5 ovarian
  TGI: > 100000 nM
SK-MEL-5 melanoma
  TGI: 1740 nM
KM12 colon
  TGI: 15400 nM
BT-549 breast
  TGI: > 100000 nM
HS 578T breast
  TGI: > 100000 nM
SF-539 CNS
  TGI: > 19900 nM
A498 renal
  TGI: 4720 nM
IGROV1 ovarian
  TGI: > 84500 nM
HL-60(TB) leukemia
  TGI: 734 nM
SF-268 CNS
  TGI: > 48000 nM
OVCAR-8 ovarian
  TGI: 7380 nM
K-562 leukemia
  TGI: > 100000 nM
NCI/ADR-RES ovarian
  TGI: > 25900 nM
COLO 205 colon
  TGI: 2030 nM
HCT-116 colon
  TGI: > 100000 nM
HT29 colon
  TGI: 2310 nM
OVCAR-4 ovarian
  TGI: > 100000 nM
M14 melanoma
  TGI: > 51400 nM
SK-OV-3 ovarian
  TGI: > 42000 nM
SNB-19 CNS
  TGI: > 51800 nM
SW-620 colon
  TGI: > 88800 nM
MALME-3M melanoma
  TGI: 3290 nM
MOLT-4 leukemia
  TGI: 42700 nM
UACC-62 melanoma
  TGI: > 61600 nM
A549 NSCLC
  TGI: > 100000 nM
HCT-15 colon
  TGI: 14300 nM
CAKI-1 renal
  TGI: > 100000 nM
HOP-62 NSCLC
  TGI: > 100000 nM
DU-145 prostate
  TGI: > 100000 nM
HCC-2998 colon
  TGI: 7370 nM
PC-3 prostate
  TGI: > 100000 nM
SR leukemia
  TGI: > 100000 nM
ACHN renal
  TGI: > 100000 nM
SK-MEL-28 melanoma
  TGI: > 100000 nM
